Measurements reported in patent US20100267712A1, “ISOINDOLINE COMPOUNDS FOR THE TREATMENT OF SPINAL MUSCULAR ATROPHY AND OTHER USES” (The United States of America, as represented by the …, priority 2007, published 2010).

Tested on: SMN2-linked luciferase-reporter gene construct
Experiment: SMN Splice Reporter Assay (SMN2-linked luciferase reporter)
Type: cell-based
Details: for EC50: cervical carcinoma cell lines, SMN2 splice luciferase reporter; for Fold Increase: fold-increase of luciferase over baseline reading of transformed cells without any test compound
Text: As previously discussed, SMN1 is the gene deleted in SMA patients; the SMN2 gene remains intact in both SMA and normal patients. Therefore, SMN2 provides a potential means of increasing SMN production in SMA patients and is, thus, a target for developing SMA treatments. SMN2 is identical to SMN1 with the exception of a single base pair change that results in reduced expression of the gene. The reduction is based on the creation of an alternatively spliced RNA that produces an unstable protein carrying a deletion of exon 7. Both full length SMN and exon 7 deleted SMN are produced by the SMN2 gene via alternative RNA splicing, but the major product is the unstable deleted form.
Cervical carcinoma cell lines were transformed with a SMN2-linked luciferase-reporter gene construct. The reporter is designed to detect shifts in the alternative splicing of SMN2 sequences. In particular, the reporter is constructed as a fusion of the alternatively spliced sequences of the SMN2 gene and the luciferase gene. Luciferase sequences are in the correct translational reading frame only when the SMN2 sequences are spliced according to the normal SMN1 mechanism (e.g., splicing to include exon 7), which allows for translation of the stable SMN protein. Compounds were tested in the assay by administering the compound to the cell line and detecting an increase in the luciferase activity. The assay is described in greater detail in Zhang et al., Gene Ther., 8: 1532-8 (2001). Compounds were administered as described in Lunn et al, Chem. & Biol, 11: 1489-1493 (2004).
The results are reported as a fold-increase over a baseline reading of transformed cells without any test compound. The EC50 value also is reported in Table 1 for some exemplary compounds of the invention.

SMILES | EC50 [nM] | Fold Increase
O=C1c2ccccc2CN1c1ccc(Br)cn1 [Example 112648] | 456 | 1.264
O=C1c2ccccc2CN1c1ccc(Br)nc1 [Example 112649] | 18200 | 1.373
CC(C)(C)OC(=O)Cc1ccc(N2Cc3ccccc3C2=O)nc1 [Example 112719] | 6580 | 1.324
COC(=O)C1CCc2cc(N3Cc4ccccc4C3=O)ccc21 (centres unmarked) [Example 113487] | 143 | 1.259
O=C(O)C1CCc2cc(N3Cc4ccccc4C3=O)ccc21 (centres unmarked) [Example 113488] |  | 1.24
O=C1c2ccccc2CN1c1ccc2c(c1)CCC2 [Example 116070] | 67 | 1.445
O=C1c2ccccc2CN1c1ccc2c(c1)OCO2 [Example 116238] | 2450 | 1.235
COc1ccc2c(c1)C(=O)N(c1ccc3c(c1)CCC3)C2 [Example 116241] | 98 | 1.512
COc1ccc2c(c1)C(=O)N(c1ccc3c(c1)OCO3)C2 [Example 116360] |  | 1.282
O=C1c2ccccc2CN1c1ccc2c(c1)OC(F)(F)O2 [Example 116485] | 2240 | 1.202
COc1ccc2c(c1)C(=O)N(c1ccc3c(c1)OC(F)(F)O3)C2 [Example 116565] | 519 | 1.3
Cc1ccc(N2Cc3cc4c(cc3C2=O)OCCO4)nc1 [Example 118418] | 63 | 1.496
COc1ccc2c(c1)C(=O)N(c1ccc(C)cn1)C2 [Example 118553] | 166 | 1.308
Cc1ccc(N2Cc3cc4c(cc3C2=O)OCCO4)cn1 [Example 118554] | 708 | 1.364
COc1ccc2c(c1)C(=O)N(c1ccc3ccn(C)c3c1)C2 [Example 118561] | 143 | 1.74
COc1ccc2c(c1)C(=O)N(c1ccc(C)nc1)C2 [Example 118735] |  | 1.149
O=C1c2cc3c(cc2CN1c1ccc(Br)cn1)OCCO3 [Example 118736] | 137 | 1.413
COc1ccc2c(c1)C(=O)N(c1ccc(Br)cn1)C2 [Example 118737] | 415 | 1.358
COc1ccc2c(c1)C(=O)N(c1ccc3c(c1)NC(=O)CO3)C2 [Example 119516] |  | 1.182
COc1ccc2c(c1)C(=O)N(c1ccc3[nH]ccc3c1)C2 [Example 119657] |  | 1.21
CN(C)c1ccc2c(c1)C(=O)N(c1ccc3c(c1)CCN3C)C2 [Example 119660] |  | 1.074
Cn1ccc2cc(N3Cc4c(N)cccc4C3=O)ccc21 [Example 120120] |  | 1.094
COc1cccc2c1C(=O)N(c1ccc3ccn(C)c3c1)C2 [Example 120124] |  | 1.17
COc1ccc2c(c1)C(=O)N(c1ccc3ccn(C(C)C)c3c1)C2 [Example 120283] |  | 1.273

Second part, led by results:

EC50 [nM] | SMILES | Fold Increase
66 | O=C1c2cc3c(cc2CN1c1ccc2sccc2c1)OCCO3 [Example 118900] | 1.399
29 | Cn1ccc2ccc(N3Cc4cc5c(cc4C3=O)OCCO5)cc21 [Example 118902] | 1.774
6 | O=C1c2cc3c(cc2CN1c1ccc2ccoc2c1)OCCO3 [Example 118903] | 1.458
157 | O=C1c2cc(OC(F)F)ccc2CN1c1ccc2c(c1)CCC2 [Example 119337] | 1.66
439 | CCCn1ccc2cc(N3Cc4ccc(OC)cc4C3=O)ccc21 [Example 119517] | 1.59
31 | COc1ccc2c(c1)C(=O)N(c1ccc3sccc3c1)C2 [Example 119519] | 1.666
45 | CC=Cc1ccc2c(c1)C(=O)N(c1ccc3c(ccn3C)c1)C2 [Example 119520] | 1.54
235 | COc1ccc2c(c1)C(=O)N(c1ccc(C(C)C)cn1)C2 [Example 119654] | 1.44
491 | COc1ccc2c(c1)C(=O)N(c1ccc(C(C)C)nc1)C2 [Example 119655] | 1.372
78 | COc1ccc2c(c1)C(=O)N(c1ccc3c(c1)OCC(=O)N3)C2 [Example 119656] | 1.375
842 | COc1cccc2c1CN(c1ccc3c(ccn3C)c1)C2=O [Example 119865] | 1.444
421 | COc1ccc2c(c1)C(=O)N(c1ccc3nc[nH]c3c1)C2 [Example 119866] | 1.313
2280 | CCCn1ccc2ccc(N3Cc4ccc(OC)cc4C3=O)cc21 [Example 119868] | 1.582
242 | COc1ccc2c(c1)CN(c1ccc3ccn(C)c3c1)C2=O [Example 119870] | 1.83
829 | Cn1ccc2ccc(N3Cc4ccc(Br)cc4C3=O)cc21 [Example 120117] | 1.519
453 | Cn1ccc2ccc(N3Cc4cc(Br)ccc4C3=O)cc21 [Example 120118] | 1.893

EC50 [nM] | SMILES | Fold Increase
1100 | COc1cccc2c1CN(c1ccc3ccn(C)c3c1)C2=O [Example 120123] | 1.966
540 | COc1cccc2c1C(=O)N(c1ccc3c(ccn3C)c1)C2 [Example 120125] | 1.332
161 | Cc1cccc2c1C(=O)N(c1ccc3c(ccn3C)c1)C2 [Example 120278] | 1.502
242 | Cc1cccc2c1C(=O)N(c1ccc3ccn(C)c3c1)C2 [Example 120279] | 1.784
455 | Cn1ccc2cc(N3Cc4cccc(Br)c4C3=O)ccc21 [Example 120280] | 1.527
397 | Cn1ccc2ccc(N3Cc4cccc(Br)c4C3=O)cc21 [Example 120281] | 1.788
737 | Cn1ccc2ccc(N3Cc4cccc([N+](=O)[O-])c4C3=O)cc21 [Example 120282] | 1.291
7870 | COCCn1ccc2ccc(N3Cc4ccc(OC)cc4C3=O)cc21 [Example 120284] | 1.19
158 | Cn1ccc2cc(N3Cc4ccccc4C3=O)ccc21 [Example 120287] | 1.433
408 | Cn1ccc2cc(N3Cc4ccc(-c5ccccc5)cc4C3=O)ccc21 [Example 120288] | 1.364
1030 | Cn1ccc2cc(N3Cc4c(Br)cccc4C3=O)ccc21 [Example 120289] | 1.39
609 | Cn1ccc2ccc(N3Cc4c(Br)cccc4C3=O)cc21 [Example 120290] | 1.386
111 | COc1ccc2c(c1)C(=O)N(c1ccc3c(c1)ncn3C)C2 [Example 120291] | 1.362
294 | Cn1ccc2cc(N3Cc4cccc(N)c4C3=O)ccc21 [Example 120427] | 1.606
338 | Cn1ccc2cc(N3Cc4cccc([N+](=O)[O-])c4C3=O)ccc21 [Example 120428] | 1.262
